Laboratory results reported in PubChem BioAssay (NCI).
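Results reflect a 48-hour exposure of cells in 96-well plates to compound at five concentrations. At the GI50, growth is halved. Definition used: TGI = concentration required for complete inhibition of growth.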

Tests used:
Assay in all cases: NCI anticancer screen, dose series, 48 h
MCF7 breast = test system: MCF7 breast
A549 NSCLC = test system: A549 NSCLC
SK-MEL-5 melanoma = test system: SK-MEL-5 melanoma
NCI-H23 lung = test system: NCI-H23 lung
SF-539 CNS = test system: SF-539 CNS
NCI-H460 lung = test system: NCI-H460 lung
UO-31 renal = test system: UO-31 renal
HS 578T breast = test system: HS 578T breast
SF-268 CNS = test system: SF-268 CNS
HOP-92 NSCLC = test system: HOP-92 NSCLC
SK-OV-3 ovarian = test system: SK-OV-3 ovarian
SF-295 CNS = test system: SF-295 CNS
MDA-MB-435 = test system: MDA-MB-435
HOP-62 NSCLC = test system: HOP-62 NSCLC
OVCAR-5 ovarian = test system: OVCAR-5 ovarian
ACHN renal = test system: ACHN renal
DU-145 prostate = test system: DU-145 prostate
CAKI-1 renal = test system: CAKI-1 renal
HCT-116 colon = test system: HCT-116 colon
BT-549 breast = test system: BT-549 breast
T-47D breast = test system: T-47D breast
UACC-257 melanoma = test system: UACC-257 melanoma
SNB-19 CNS = test system: SNB-19 CNS
U251 CNS = test system: U251 CNS
M14 melanoma = test system: M14 melanoma
SR leukemia = test system: SR leukemia
OVCAR-8 ovarian = test system: OVCAR-8 ovarian
SNB-75 CNS = test system: SNB-75 CNS
UACC-62 melanoma = test system: UACC-62 melanoma
HCT-15 colon = test system: HCT-15 colon
HL-60(TB) leukemia = test system: HL-60(TB) leukemia
COLO 205 colon = test system: COLO 205 colon
RPMI-8226 leukemia = test system: RPMI-8226 leukemia
A498 renal = test system: A498 renal
SN12C renal = test system: SN12C renal
HT29 colon = test system: HT29 colon
LOX IMVI melanoma = test system: LOX IMVI melanoma
NCI/ADR-RES ovarian = test system: NCI/ADR-RES ovarian
KM12 colon = test system: KM12 colon
786-0 renal = test system: 786-0 renal
CCRF-CEM leukemia = test system: CCRF-CEM leukemia
IGROV1 ovarian = test system: IGROV1 ovarian
NCI-H522 lung = test system: NCI-H522 lung
MDA-MB-231 breast = test system: MDA-MB-231 breast
SK-MEL-28 melanoma = test system: SK-MEL-28 melanoma
HCC-2998 colon = test system: HCC-2998 colon
OVCAR-4 ovarian = test system: OVCAR-4 ovarian
TK-10 renal = test system: TK-10 renal
MOLT-4 leukemia = test system: MOLT-4 leukemia
MALME-3M melanoma = test system: MALME-3M melanoma
SW-620 colon = test system: SW-620 colon
PC-3 prostate = test system: PC-3 prostate
OVCAR-3 ovarian = test system: OVCAR-3 ovarian
SK-MEL-2 melanoma = test system: SK-MEL-2 melanoma
K-562 leukemia = test system: K-562 leukemia

## Clc1ccc(Nc2ccnc(NCCNc3ccnc4cc(Cl)ccc34)n2)cc1
MCF7 breast
  GI50: 1080 nM
  TGI: 2590 nM
A549 NSCLC
  GI50: 1530 nM
  TGI: 3.1 µM
SK-MEL-5 melanoma
  GI50: 1310 nM
  TGI: 2590 nM
NCI-H23 lung
  GI50: 1440 nM
  TGI: 2910 nM
SF-539 CNS
  GI50: 1300 nM
  TGI: 2800 nM
NCI-H460 lung
  GI50: 1340 nM
  TGI: 2860 nM
UO-31 renal
  GI50: 1210 nM
  TGI: 2600 nM
HS 578T breast
  GI50: 1830 nM
  TGI: 4.38 µM
SF-268 CNS
  GI50: 1450 nM
  TGI: 2820 nM
HOP-92 NSCLC
  GI50: 126 nM
  TGI: 2000 nM
SK-OV-3 ovarian
  GI50: 1440 nM
  TGI: 2760 nM
SF-295 CNS
  GI50: 1160 nM
  TGI: 2420 nM
MDA-MB-435
  GI50: 1370 nM
  TGI: 2680 nM
HOP-62 NSCLC
  GI50: 1270 nM
  TGI: 2660 nM
OVCAR-5 ovarian
  GI50: 1160 nM
  TGI: 2450 nM
ACHN renal
  GI50: 1630 nM
  TGI: 3.09 µM
DU-145 prostate
  GI50: 1590 nM
  TGI: 2970 nM
CAKI-1 renal
  GI50: 1590 nM
  TGI: 3.01 µM
HCT-116 colon
  GI50: 522 nM
  TGI: 2120 nM
BT-549 breast
  GI50: 1500 nM
  TGI: 3.2 µM
T-47D breast
  GI50: 1150 nM
  TGI: 3.05 µM
UACC-257 melanoma
  GI50: 1680 nM
  TGI: 3.17 µM
SNB-19 CNS
  GI50: 1540 nM
  TGI: 3.07 µM
U251 CNS
  GI50: 1330 nM
  TGI: 2670 nM
M14 melanoma
  GI50: 1400 nM
  TGI: 3.09 µM
SR leukemia
  GI50: 1390 nM
  TGI: 3.43 µM
OVCAR-8 ovarian
  GI50: 1590 nM
  TGI: 3.37 µM
SNB-75 CNS
  GI50: 1220 nM
  TGI: 2470 nM
UACC-62 melanoma
  GI50: 1690 nM
  TGI: 3.17 µM
HCT-15 colon
  GI50: 1030 nM
  TGI: 2360 nM
HL-60(TB) leukemia
  GI50: 2090 nM
  TGI: 4.92 µM
COLO 205 colon
  GI50: 1310 nM
  TGI: 2920 nM
RPMI-8226 leukemia
  GI50: 1380 nM
  TGI: 3.73 µM
A498 renal
  GI50: 1130 nM
  TGI: 2390 nM
SN12C renal
  GI50: 1510 nM
  TGI: 3.47 µM
HT29 colon
  GI50: 615 nM
  TGI: 2070 nM
LOX IMVI melanoma
  GI50: 1290 nM
  TGI: 2620 nM
NCI/ADR-RES ovarian
  GI50: 1610 nM
  TGI: 3.51 µM
KM12 colon
  GI50: 1620 nM
  TGI: 3.06 µM
786-0 renal
  GI50: 1620 nM
  TGI: 3.44 µM
CCRF-CEM leukemia
  GI50: 1010 nM
  TGI: 2620 nM
IGROV1 ovarian
  GI50: 1430 nM
  TGI: 3.12 µM
NCI-H522 lung
  GI50: 1700 nM
  TGI: 3.27 µM
MDA-MB-231 breast
  GI50: 1590 nM
  TGI: 3.31 µM
SK-MEL-28 melanoma
  GI50: 1580 nM
  TGI: 3.03 µM
HCC-2998 colon
  GI50: 1220 nM
  TGI: 2590 nM
OVCAR-4 ovarian
  GI50: 1030 nM
  TGI: 2310 nM
TK-10 renal
  GI50: 1760 nM
  TGI: 3.17 µM
MOLT-4 leukemia
  GI50: 1490 nM
  TGI: 3.55 µM
MALME-3M melanoma
  GI50: 1740 nM
  TGI: 3.48 µM
SW-620 colon
  GI50: 1140 nM
  TGI: 2640 nM
PC-3 prostate
  GI50: 1190 nM
  TGI: 3.15 µM
OVCAR-3 ovarian
  GI50: 1360 nM
  TGI: 2690 nM
SK-MEL-2 melanoma
  GI50: 1960 nM
  TGI: 3.5 µM
K-562 leukemia
  GI50: 501 nM
  TGI: 1870 nM
